Assay results published in paper PMC10980815, “Cell surface patching via CXCR4-targeted nanothreads for cancer metastasis inhibition” (Nature Communications, 2024).
“And” between values parts separate entries of the source, which are not always exact repeats. Equal entries are not always repeated. Ends that are not written are not given here.

How the values were obtained:
[1] = test system: orthotopic 4T1 breast tumors; test: EMT markers E-cadherin and vimentin in primary tumors (flow cytometry); assay type: in vivo, female BALB/c mice
Experimental: (§1) 4T1 cells (1 × 10^6 cells) were injected into the third mammary fat pad of female BALB/c mice (6–8-week). […] On day 28, blood samples, lungs and tumors were harvested.
(§2) To investigate the epithelial-mesenchymal transition process in tumor tissues, immunofluorescent staining of E-cadherin, vimentin, MMP-9, and TGF-β, along with flow cytometry analysis of E-cadherin and vimentin, were applied. For immunofluorescent staining of E-cadherin and vimentin, tumor slices were stained with CoraLite® Plus 647 anti-mouse CD324 (E-cadherin, 1:300 dilution) and anti-vimentin mouse monoclonal antibody (1:500 dilution) at 4 °C overnight, followed by staining with goat anti-mouse IgG H&L Alexa Fluor® 488 (1:1000 dilution). For flow cytometry analysis of E-cadherin and vimentin, single-cell suspensions of tumor tissues were stained with CoraLite® Plus 647 anti-mouse CD324 (E-cadherin, 1:300 dilution) or sequentially stained with anti-vimentin recombinant rabbit monoclonal antibody and goat anti-rabbit IgG H&L Alexa Fluor® 647 (1:1000 dilution), respectively. For immunofluorescent staining of MMP-9 and TGF-β, tumor slices were separately stained with MMP9 Rabbit pAb (1:500 dilution) or anti-TGF beta 1 recombinant rabbit monoclonal antibody (1:500 dilution), followed by staining with goat anti-rabbit IgG H&L Alexa Fluor® 647 (1:1000 dilution), respectively.

LOX = test: Immunofluorescence of LOX in lung tissues; assay type: in vivo, female BALB/c mice
Experimental: To explore the “seed-soil” crosstalk, the serum, intra-tumoral, and pulmonary concentration of LOX was determined using enzyme-linked immunosorbent assay kits (CSB-EL013041MO, CUSABIO, https://www.cusabio.com/) according to the manufacturer’s instructions. The serum, intra-tumoral, and pulmonary concentration of TGF-β was determined using mouse TGF-β ELISA Kit (Cat No.: HB1328-Mu). The formation of PMN was investigated through lung slices subjected to immunofluorescent staining of LOX, E-cadherin, and S100A8. For immunofluorescent staining of E-cadherin, Lung slices were stained with CoraLite® Plus 647 anti-mouse CD324 (E-cadherin, 1:300 dilution). For immunofluorescent staining of LOX and S100A8, Lung slices were separately stained with anti-LOX recombinant rabbit monoclonal antibody (1:500 dilution) or S100-A8 / MRP8 rabbit pAb (1:500 dilution), followed by staining with goat anti-rabbit IgG H&L Alexa Fluor® 647 (1:1000 dilution), respectively. Single-cell suspensions of lungs were analyzed using flow cytometry to assess BMDC (CD11b^+Gr1^+) with PE anti-mouse/human CD11b antibody (1:300 dilution) and FITC anti-mouse Ly-6G/Ly-6C (Gr-1) antibody (1:300 dilution). Chemokine concentrations in lungs were determined using a mouse CXCL12 ELISA kit.

MMP-9 and TGF-β = test: Immunofluorescence of MMP-9 and TGF-β in tumor tissues; assay type: in vivo, female BALB/c mice
Experimental: as §2

4T1 cells [2] = test: Wound healing assay; assay type: cell-based, murine; details: stimulated 4T1 cells; individual replicates, n = 3
Experimental: (§3) Wound healing assay and transwell migration and invasion assay were conducted to investigate in vitro metastasis inhibition. For the wound healing assay, 4T1 cells (5 × 10^5 cells) were cultured in 12-well plates (NEST Biotechnology) as monolayer with more than 90% coverage. Sterile 200 μL pipette tips were used to scrape off the cells, generating a linear cell-free area in the middle of the well. Subsequently, cells were washed by PBS to remove debris. In the stimulated group, 4T1 cells were stimulated with CXCL12 (100 ng/mL) for 1 h. […] In the P-BS-CM1 → P-CM2 group, 4T1 cells underwent consecutive treatment with P-BS-CM1 for 1 h and P-CM2 for 1 h before CXCL12 stimulation (1 mg/mL BS equivalence, CM1:CM2, 1:1 mol%). Images of the wound were recorded by a microscope at 0 h and 24 h after CXCL12 stimulation, and the wound healing rate was calculated using Image J software. For the transwell migration and invasion assay, 4T1 cells (5 × 10^5 cells) were seeded in the non-coated upper chamber (Millipore, 8 μm) or GelNest™ matrigel (NEST Biotechnology) pre-coated upper chamber. The cells underwent the same treatment conditions as wound healing assay. After 24 h of treatment, migrated or invaded cells across the membrane were stained with 0.1% crystal violet, imaged by microscope, and quantified by absorbance at 570 nm after dissolution.

4T1 cells [3] = test: Transwell migration assay; assay type: cell-based, murine; details: stimulated 4T1 cells; individual replicates, n = 3
Experimental: as §3

[4] = test system: orthotopic 4T1 breast tumors; test: Hydroxyproline assay in tumor tissues; assay type: in vivo, female BALB/c mice; design: unit not given here
Experimental: as §1
To assess fibrosis in tumor tissues, Masson staining, Sirius staining, immunofluorescent staining of α-SMA and fibronectin, and a quantitative hydroxyproline assay were employed. For immunofluorescent staining of α-SMA and fibronectin, tumor slices were stained with anti-alpha smooth muscle actin recombinant rabbit monoclonal antibody (1:500 dilution) and anti-fibronectin mouse monoclonal antibody (1:500 dilution) at 4 °C overnight, followed by staining with goat anti-mouse IgG H&L Alexa Fluor® 488 (1:1000 dilution) and goat anti-rabbit IgG H&L Alexa Fluor® 647 (1:1000 dilution).

[5] = i.v. days 7, 14, 21 (5 mg/kg BS equivalence; P-CM2 24 h later), analysis day 28, mouse 1 of 5

Substance | Relative fluorescence intensity of E-cadherin ([1]; replicate 1) | Relative fluorescence intensity of vimentin ([1]; replicate 1) | Relative fluorescence intensity of E-cadherin ([1]; replicate 2) | Relative fluorescence intensity of vimentin ([1]; replicate 2) | Relative fluorescence intensity of E-cadherin ([1]; replicate 3) | Relative fluorescence intensity of vimentin ([1]; replicate 3) | Relative fluorescence intensity of E-cadherin ([1]; replicate 4) | Relative fluorescence intensity of vimentin ([1]; replicate 4) | Relative fluorescence intensity of E-cadherin ([1]; replicate 5) | Relative fluorescence intensity of vimentin ([1]; replicate 5) | Mean fluorescence intensity of LOX in lung tissues (LOX; replicate 1) | Mean fluorescence intensity of LOX in lung tissues (LOX; replicate 2) | Mean fluorescence intensity of LOX in lung tissues (LOX; replicate 3) | Mean fluorescence intensity of LOX in lung tissues (LOX; replicate 4) | Mean fluorescence intensity of LOX in lung tissues (LOX; replicate 5) | Relative fluorescence intensity of MMP-9 in tumor tissues (MMP-9 and TGF-β; replicate 1) | Relative fluorescence intensity of TGF-β in tumor tissues (MMP-9 and TGF-β; replicate 1) | Relative fluorescence intensity of MMP-9 in tumor tissues (MMP-9 and TGF-β; replicate 2) | Relative fluorescence intensity of TGF-β in tumor tissues (MMP-9 and TGF-β; replicate 2) | Relative fluorescence intensity of MMP-9 in tumor tissues (MMP-9 and TGF-β; replicate 3) | also measured
LGASWHRPDKCCLGYQKRPLPA [Free BS] | 125.013 | 279.76 | 109.513 | 205.554 | 122.233 | 194.538 | 126.237 | 224.095 | 145.15 | 192.228 | 145.665 | 136.817 | 150.369 | 132.821 | 140.21 | 143.238 | 172.974 | 142.904 | 152.446 | 138.899 | Relative fluorescence intensity of TGF-β in tumor tissues (MMP-9 and TGF-β; replicate 3): 165.051; Relative fluorescence intensity of MMP-9 in tumor tissues (MMP-9 and TGF-β; replicate 4): 132.502; Relative fluorescence intensity of TGF-β in tumor tissues (MMP-9 and TGF-β; replicate 4): 164.828; Relative fluorescence intensity of MMP-9 in tumor tissues (MMP-9 and TGF-β; replicate 5): 136.888; Relative fluorescence intensity of TGF-β in tumor tissues (MMP-9 and TGF-β; replicate 5): 159.609; Wound healing rate (%) (4T1 cells [2]): 89.21% and 80.06% and 77.11%; Migration content (%) (4T1 cells [3]): 99.141% and 98.012% and 94.753%; hydroxyproline in tumor tissues (Fig. 6b) [4, 5]: 0.5754; hydroxyproline in tumor tissues (Fig. 6b) ([4]; same, mouse 2 of 5): 0.4638; hydroxyproline in tumor tissues (Fig. 6b) ([4]; same, mouse 3 of 5): 0.4618; hydroxyproline in tumor tissues (Fig. 6b) ([4]; same, mouse 4 of 5): 0.441; hydroxyproline in tumor tissues (Fig. 6b) ([4]; same, mouse 5 of 5): 0.4238
P-BS: HPMA copolymer-BS conjugate, ~6 BS grafts per polymer (LGASWHRPDKCCLGYQKRPLPA; not fully specified (residues 11, 12); also: about 6 peptides grafted on HPMA copolymer via cysteine-maleimide thioether links) | 136.747 | 148.698 | 140.523 | 180.025 | 162.569 | 180.666 | 158.855 | 185.036 | 155.981 | 170.787 | 121.535 | 108.102 | 109.056 | 97.784 | 101.188 | 108.085 | 144.596 | 120.005 | 130.014 | 113.377 | Relative fluorescence intensity of TGF-β in tumor tissues (MMP-9 and TGF-β; replicate 3): 139.806; Relative fluorescence intensity of MMP-9 in tumor tissues (MMP-9 and TGF-β; replicate 4): 115.997; Relative fluorescence intensity of TGF-β in tumor tissues (MMP-9 and TGF-β; replicate 4): 146.777; Relative fluorescence intensity of MMP-9 in tumor tissues (MMP-9 and TGF-β; replicate 5): 97.611; Relative fluorescence intensity of TGF-β in tumor tissues (MMP-9 and TGF-β; replicate 5): 131.749; Wound healing rate (%) (4T1 cells [2]): 50.0872% and 55.1712% and 60.2636%; Migration content (%) (4T1 cells [3]): 52.3% and 41.02% and 47.1%; hydroxyproline in tumor tissues (Fig. 6b) [4, 5]: 0.4104; hydroxyproline in tumor tissues (Fig. 6b) ([4]; same, mouse 2 of 5): 0.397; hydroxyproline in tumor tissues (Fig. 6b) ([4]; same, mouse 3 of 5): 0.3878; hydroxyproline in tumor tissues (Fig. 6b) ([4]; same, mouse 4 of 5): 0.3734; hydroxyproline in tumor tissues (Fig. 6b) ([4]; same, mouse 5 of 5): 0.3825
